Reference: PubChem BioAssay (NCI)
Values joined by “and” are separate entries in the source; they are usually repeats but may differ in a detail not shown here. Identical values can stand only once.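 Dose response: 5 concentrations. Exposure: 48 h. Format: 96-well plates. Endpoint: linear interpolation; highest concentration if not reached. The concentration for 50% growth inhibition is given as GI50. At the TGI there is no net growth.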

How the values were obtained:
Experiment in all cases: NCI anticancer screen, dose series, 48 h; in the data active = GI50 below about 0.43 µM; inactive = the rest
M14 melanoma = system: M14 melanoma
786-0 renal = system: 786-0 renal
ACHN renal = system: ACHN renal
UACC-62 melanoma = system: UACC-62 melanoma
NCI/ADR-RES ovarian = system: NCI/ADR-RES ovarian
NCI-H226 lung = system: NCI-H226 lung
SN12C renal = system: SN12C renal
DU-145 prostate = system: DU-145 prostate
SK-OV-3 ovarian = system: SK-OV-3 ovarian
U251 CNS = system: U251 CNS
SK-MEL-28 melanoma = system: SK-MEL-28 melanoma
UACC-257 melanoma = system: UACC-257 melanoma
NCI-H522 lung = system: NCI-H522 lung
MDA-MB-435 = system: MDA-MB-435
OVCAR-5 ovarian = system: OVCAR-5 ovarian
A498 renal = system: A498 renal
NCI-H23 lung = system: NCI-H23 lung
HOP-92 NSCLC = system: HOP-92 NSCLC
SF-268 CNS = system: SF-268 CNS
CCRF-CEM leukemia = system: CCRF-CEM leukemia
HCT-116 colon = system: HCT-116 colon
SNB-19 CNS = system: SNB-19 CNS
SF-295 CNS = system: SF-295 CNS
K-562 leukemia = system: K-562 leukemia
LOX IMVI melanoma = system: LOX IMVI melanoma
SNB-75 CNS = system: SNB-75 CNS
SW-620 colon = system: SW-620 colon
HCT-15 colon = system: HCT-15 colon
BT-549 breast = system: BT-549 breast
TK-10 renal = system: TK-10 renal
MALME-3M melanoma = system: MALME-3M melanoma
NCI-H460 lung = system: NCI-H460 lung
HCC-2998 colon = system: HCC-2998 colon
RXF 393 renal = system: RXF 393 renal
IGROV1 ovarian = system: IGROV1 ovarian
RPMI-8226 leukemia = system: RPMI-8226 leukemia
UO-31 renal = system: UO-31 renal
SF-539 CNS = system: SF-539 CNS
HL-60(TB) leukemia = system: HL-60(TB) leukemia
T-47D breast = system: T-47D breast
HT29 colon = system: HT29 colon
OVCAR-4 ovarian = system: OVCAR-4 ovarian
MDA-MB-231 breast = system: MDA-MB-231 breast
COLO 205 colon = system: COLO 205 colon
PC-3 prostate = system: PC-3 prostate
HOP-62 NSCLC = system: HOP-62 NSCLC
OVCAR-8 ovarian = system: OVCAR-8 ovarian
MOLT-4 leukemia = system: MOLT-4 leukemia
MCF7 breast = system: MCF7 breast
SK-MEL-5 melanoma = system: SK-MEL-5 melanoma
CAKI-1 renal = system: CAKI-1 renal
KM12 colon = system: KM12 colon
SK-MEL-2 melanoma = system: SK-MEL-2 melanoma
OVCAR-3 ovarian = system: OVCAR-3 ovarian
HS 578T breast = system: HS 578T breast
SR leukemia = system: SR leukemia

c1ccc(Nn2c(CCCCCCCCc3nnc(COc4ccccc4)n3Nc3ccccc3)nnc2COc2ccccc2)cc1
> 91.8 µM: TGI (NCI-H522 lung)
59.1 µM and 34.8 µM: TGI (CAKI-1 renal)
8.81 µM and 77.1 µM: TGI (COLO 205 colon)
> 60.1 µM and 50.2 µM: TGI (M14 melanoma)
267 µM: TGI (HOP-92 NSCLC)
> 63.4 µM and 252 µM: TGI (SK-MEL-2 melanoma)
> 40.8 µM and 68 µM: TGI (UACC-62 melanoma)
98 µM and > 300 µM: TGI (RXF 393 renal)
> 86.5 µM: TGI (UACC-257 melanoma)
> 72.6 µM and 186 µM: TGI (HCC-2998 colon)
> 60.5 µM and 20 µM: TGI (SF-539 CNS)
inactive: GI50 (M14 melanoma) 6.24 µM and 4.23 µM | GI50 (786-0 renal) 29 µM and 36.3 µM | GI50 (ACHN renal) 2.89 µM and 5.83 µM | GI50 (UACC-62 melanoma) 1.28 µM | GI50 (NCI/ADR-RES ovarian) 11.5 µM and 20.6 µM | GI50 (NCI-H226 lung) 15.6 µM and 70.9 µM | GI50 (SN12C renal) 35.5 µM and 66.6 µM | GI50 (DU-145 prostate) 35 µM and > 300 µM | GI50 (SK-OV-3 ovarian) > 300 µM | GI50 (U251 CNS) 39.6 µM and 144 µM | GI50 (SK-MEL-28 melanoma) 22.9 µM and 57.1 µM | GI50 (MDA-MB-435) 5.34 µM and 11.9 µM | GI50 (OVCAR-5 ovarian) 8.56 µM and 10.2 µM | GI50 (A498 renal) 37.6 µM | GI50 (NCI-H23 lung) 37.2 µM and 76.8 µM | GI50 (HOP-92 NSCLC) 30.7 µM and 41.9 µM | GI50 (SF-268 CNS) 23.5 µM and 70.9 µM | GI50 (CCRF-CEM leukemia) 2.91 µM | GI50 (HCT-116 colon) 51.7 µM | GI50 (SNB-19 CNS) 107 µM | GI50 (SF-295 CNS) 1.24 µM and 7.51 µM | GI50 (K-562 leukemia) 3.71 µM and 2.17 µM | GI50 (LOX IMVI melanoma) 5.35 µM and 4.04 µM | GI50 (SNB-75 CNS) 48.8 µM and 49.2 µM | GI50 (SW-620 colon) 9.55 µM and 11.8 µM | GI50 (HCT-15 colon) 9.88 µM and 5.62 µM | GI50 (BT-549 breast) 33 µM | GI50 (TK-10 renal) 45.7 µM and 162 µM | GI50 (MALME-3M melanoma) 27.5 µM and 25.7 µM | GI50 (NCI-H460 lung) 6.34 µM and 12.9 µM | GI50 (HCC-2998 colon) 16.2 µM and 15.7 µM | GI50 (RXF 393 renal) 157 µM | GI50 (IGROV1 ovarian) 17.7 µM and 46 µM | GI50 (UO-31 renal) 5.27 µM and 8.49 µM | GI50 (SF-539 CNS) 7.23 µM | GI50 (HL-60(TB) leukemia) 2.55 µM and 9.66 µM | GI50 (T-47D breast) 12.3 µM and 7.31 µM | GI50 (HT29 colon) 41.9 µM | GI50 (OVCAR-4 ovarian) 25.8 µM and 88.1 µM | GI50 (MDA-MB-231 breast) 12.4 µM | GI50 (COLO 205 colon) 3.18 µM and 19.6 µM | GI50 (PC-3 prostate) 8.32 µM and 23.9 µM | GI50 (OVCAR-8 ovarian) 40 µM and 23.9 µM | GI50 (MOLT-4 leukemia) 14.5 µM | GI50 (MCF7 breast) 18.3 µM | GI50 (SK-MEL-5 melanoma) 6.41 µM and 50 µM | GI50 (CAKI-1 renal) 5.11 µM and 2.73 µM | GI50 (KM12 colon) 5.7 µM and 2.69 µM | GI50 (SK-MEL-2 melanoma) 13.8 µM and 25.5 µM | GI50 (OVCAR-3 ovarian) 16.5 µM and 41.2 µM | GI50 (HS 578T breast) 35.5 µM | GI50 (SR leukemia) 8.48 µM and 7.33 µM
> 300 µM: TGI (786-0 renal) | TGI (ACHN renal) | TGI (NCI/ADR-RES ovarian) | TGI (NCI-H226 lung) | TGI (SN12C renal) | TGI (DU-145 prostate) | TGI (SK-OV-3 ovarian) | TGI (U251 CNS) | TGI (SK-MEL-28 melanoma) | TGI (MDA-MB-435) | TGI (OVCAR-5 ovarian) | TGI (A498 renal) | TGI (NCI-H23 lung) | TGI (SF-268 CNS) | TGI (HCT-116 colon) | TGI (SNB-19 CNS) | TGI (K-562 leukemia) | TGI (LOX IMVI melanoma) | TGI (SNB-75 CNS) | TGI (SW-620 colon) | TGI (HCT-15 colon) | TGI (BT-549 breast) | TGI (TK-10 renal) | TGI (MALME-3M melanoma) | TGI (NCI-H460 lung) | TGI (IGROV1 ovarian) | TGI (RPMI-8226 leukemia) | TGI (UO-31 renal) | TGI (HL-60(TB) leukemia) | TGI (T-47D breast) | TGI (HT29 colon) | TGI (OVCAR-4 ovarian) | TGI (MDA-MB-231 breast) | TGI (PC-3 prostate) | TGI (HOP-62 NSCLC) | TGI (OVCAR-8 ovarian) | TGI (MOLT-4 leukemia) | TGI (MCF7 breast) | TGI (SK-MEL-5 melanoma) | TGI (KM12 colon) | TGI (OVCAR-3 ovarian) | TGI (HS 578T breast) | TGI (SR leukemia)
